Experimental data from patent US20240158446A1, “CYCLIC COMPOUND HAVING SELECTIVE INHIBITORY ACTION ON KRAS OVER HRAS AND NRAS” (CHUGAI SEIYAKU KABUSHIKI KAISHA, priority 2021, published 2024).
Read-outs that look alike come from different tables or passages of the source.

Legend:
[1] = biological target: GDP-bound NRAS wild-type protein (Homo sapiens, UniProt P01111); test: Binding to NRAS by surface plasmon resonance (SPR), Single Cycle Kinetics; details: for NRAS/KRAS (ratio of KD value for NRAS to KD value for KRAS): GDP-bound NRAS wild-type protein vs GDP-bound KRAS wild-type protein
[2] = biological target: GDP-bound HRAS wild-type protein (Homo sapiens, UniProt P01112); test: Binding to HRAS by surface plasmon resonance (SPR), Single Cycle Kinetics; details: for HRAS/KRAS (ratio of KD value for HRAS to KD value for KRAS): GDP-bound HRAS wild-type protein vs GDP-bound KRAS wild-type protein
[3] = tested on: human lung cancer strain NCI-H441;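 further: cell proliferation inhibition after four days measured by CellTiter-Glo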
[4] = biological target: GDP-bound KRAS wild-type protein (Homo sapiens, UniProt P01116); test: Binding to KRAS by surface plasmon resonance (SPR), Single Cycle Kinetics; details: GDP-bound KRAS wild-type protein, read-out: KRAS KD
[5] = SPR, Single Cycle Kinetics, 1:1 binding model

Sequence of GDP-bound HRAS wild-type protein (P01112 whole entry): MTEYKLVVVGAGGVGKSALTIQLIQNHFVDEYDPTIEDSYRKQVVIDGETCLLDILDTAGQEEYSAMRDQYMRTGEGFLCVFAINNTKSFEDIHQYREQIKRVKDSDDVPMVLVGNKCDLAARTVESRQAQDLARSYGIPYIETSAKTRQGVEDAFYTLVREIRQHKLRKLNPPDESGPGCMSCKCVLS
Sequence of GDP-bound KRAS wild-type protein (P01116 whole entry): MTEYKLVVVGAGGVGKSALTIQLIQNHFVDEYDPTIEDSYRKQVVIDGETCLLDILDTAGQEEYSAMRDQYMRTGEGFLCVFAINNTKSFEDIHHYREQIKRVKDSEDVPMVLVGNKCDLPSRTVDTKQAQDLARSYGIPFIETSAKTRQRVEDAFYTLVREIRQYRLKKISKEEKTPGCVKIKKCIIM
Sequence of GDP-bound NRAS wild-type protein (P01111 whole entry): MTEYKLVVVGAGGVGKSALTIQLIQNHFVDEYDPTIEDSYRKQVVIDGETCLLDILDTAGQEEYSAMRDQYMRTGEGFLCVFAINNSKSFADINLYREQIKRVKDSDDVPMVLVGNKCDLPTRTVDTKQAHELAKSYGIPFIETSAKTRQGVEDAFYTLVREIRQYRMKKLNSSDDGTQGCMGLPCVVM

IC50 [3] | Kd ([4]; SPR, Single Cycle Kinetics) | SMILES | NRAS/KRAS (ratio of KD value for NRAS to KD value for KRAS) ([1]; SPR) | HRAS/KRAS (ratio of KD value for HRAS to KD value for KRAS) ([2]; SPR) | other results
125 nM | 2 nM | CCO[C@H](C)[C@@H]1NC(=O)[C@H](CC(C)C)N(C)C(=O)C[C@@H](C(=O)N(C)CC)N(C)C(=O)[C@H](C2CCCC2)N(C)C(=O)C2(CC(C)(C)C2)NC(=O)[C@@H]2C[C@H](C)CN2C(=O)[C@H](CCc2ccc(C(F)(F)F)c(OC)c2)NC(=O)CN(C)C(=O)[C@H](Cc2ccc(C)cc2)N2CC/C=C\C[C@@H](C2=O)N(C)C(=O)[C@@H]2CCCN2C1=O [PP2419] | A (a compound having 10 or more and less than 20 is denoted as A) | A (a compound having 10 or more and less than 20 is denoted as A) | 
103 nM |  | CCO[C@@H]1C[C@H]2C(=O)NC3(CCC3)C(=O)N(C)[C@@H](C3CCCC3)C(=O)N(C)[C@H](C(=O)N3CCC3)CC(=O)N(C)[C@@H](CC)C(=O)N[C@@H]([C@@H](C)CC)C(=O)N(C)CC(=O)N(C)[C@H]3C/C=C\CCN(C3=O)[C@@H](CC3CCC(F)(F)CC3)C(=O)N(C)CC(=O)N[C@@H](CCc3cc(F)c(C(F)(F)F)c(F)c3)C(=O)N2C1 [PP1444] |  |  | NRAS/KRAS (ratio of KD value for NRAS to KD value for KRAS) ([1]; SPR, KD ratio class): A (a compound having 10 or more and less than 20 is denoted as A); HRAS/KRAS (ratio of KD value for HRAS to KD value for KRAS) ([2]; SPR, KD ratio class): A (a compound having 10 or more and less than 20 is denoted as A); Kd [4, 5]: 0.19 nM
33.5 nM | 0.43 nM | CCO[C@@H]1C[C@H]2C(=O)NC3(CCC3)C(=O)N(C)[C@@H](C3CCCC3)C(=O)N(C)[C@H](C(=O)N3CCOCC3)CC(=O)N(C)[C@@H](Cc3ccc(Cl)c(Cl)c3)C(=O)N[C@@H]([C@@H](C)CC)C(=O)N(C)CC(=O)N(C)[C@H]3CCCCCN(C3=O)[C@@H](Cc3ccc(F)cc3)C(=O)N(C)CC(=O)N[C@@H](CCc3cc(F)c(C(F)(F)F)c(F)c3)C(=O)N2C1 [PP1188] | B (a compound having 3 or more and less than 10 is denoted as B) | B (a compound having 3 or more and less than 10 is denoted as B) | 
 | 0.033 nM | CCO[C@@H]1C[C@H]2C(=O)N(C)C3(CC(C)(C)C3)C(=O)N(C)[C@@H](C3CCCC3)C(=O)N(C)[C@H](C(=O)N(C)C)CC(=O)N(C)[C@H]3CCCCCCc4ccc(cc4)C[C@@H](C(=O)N(C)CC(=O)N[C@@H](CCc4ccc(C(F)(F)F)c(OC)c4)C(=O)N2C1)N1CC/C=C\C[C@@H](C1=O)N(C)C(=O)CN(C)C(=O)[C@H]([C@@H](C)CC)NC3=O [PP3090] | A (a compound having 10 or more and less than 20 is denoted as A) | B (a compound having 3 or more and less than 10 is denoted as B) | ratio of the KD value with respect to GDP-bound NRAS wild-type protein to the KD value with respect to KRAS ([1]; SPR, KD(NRAS)/KD(KRAS)): A (a compound having 10 or more and less than 20 is denoted as A); ratio of the KD value with respect to GDP-bound HRAS wild-type protein to the KD value with respect to KRAS ([2]; SPR, KD(HRAS)/KD(KRAS)): B (a compound having 3 or more and less than 10 is denoted as B); IC50 ([3]; read-out: NCI-H441 cell proliferation inhibitory activity, 50% proliferation inhibitory concentration (IC50 value), NCI-H441, four days, CellTiter-Glo): 1.3 nM
7.5 nM | 0.062 nM | CCOC[C@H]1C(=O)N[C@@H]([C@@H](C)CC)C(=O)N2CCC[C@H]2C(=O)N(C)[C@H]2C/C=C\CCN(C2=O)[C@@H](Cc2ccc(C(F)(F)F)cc2)C(=O)N(C)CC(=O)N[C@@H](CCc2ccc(C(F)(F)F)c(OC)c2)C(=O)N2C[C@@H](C)C[C@H]2C(=O)N(C)C2(CCC2)C(=O)N(C)[C@@H](C2CCCC2)C(=O)N(C)[C@H](C(=O)N(C)C)CC(=O)N1C [PP2363] | A (a compound having 10 or more and less than 20 is denoted as A) | B (a compound having 3 or more and less than 10 is denoted as B) | 
35 nM |  | CC[C@H](C)[C@@H]1NC(=O)[C@H](CC)N(C)C(=O)C[C@@H](C(=O)N2CCOCC2)N(C)C(=O)[C@H](C2CCCC2)N(C)C(=O)C2(CCC2)NC(=O)[C@@H]2CCCN2C(=O)[C@H](CCc2ccc(C(F)(F)F)c(Cl)c2)NC(=O)CN(C)C(=O)[C@H](Cc2ccc(C(F)(F)F)cc2)N2C[C@H](C)CC[C@@H](C2=O)N(C)C(=O)CN(C)C1=O [PP1338] |  |  | NRAS/KRAS (ratio of KD value for NRAS to KD value for KRAS) ([1]; SPR, KD ratio class): B (a compound having 3 or more and less than 10 is denoted as B); HRAS/KRAS (ratio of KD value for HRAS to KD value for KRAS) ([2]; SPR, KD ratio class): B (a compound having 3 or more and less than 10 is denoted as B); Kd [4, 5]: 0.14 nM
5.3 nM | 0.12 nM | CCOC[C@H]1C(=O)N[C@@H]([C@@H](C)CC)C(=O)N(C)CC(=O)N(C)[C@H]2C/C=C\CCN(C2=O)[C@@H](Cc2ccc(C)cc2)C(=O)N(C)CC(=O)N[C@@H](CCc2ccc(C(F)(F)F)c(Cl)c2)C(=O)N2C[C@H](OCC)C[C@H]2C(=O)NC2(CC(C)(C)C2)C(=O)N(C)[C@@H](C2CCCC2)C(=O)N(C)[C@H](C(=O)N(C)CC)CC(=O)N1C [PP2401] | A (a compound having 10 or more and less than 20 is denoted as A) | A (a compound having 10 or more and less than 20 is denoted as A) | 
30.5 nM | 0.84 nM | CCO[C@@H]1C[C@H]2C(=O)NC3(CC(C)(C)C3)C(=O)N(C)[C@@H](C(CC)CC)C(=O)N(C)[C@H](C(=O)N(C)C)CC(=O)N(C)[C@@H](CC3CC3)C(=O)N[C@@H]([C@@H](C)CC)C(=O)N(C)CC(=O)N(C)[C@H]3C/C=C\CCN(C3=O)[C@@H](CC3CCC(F)(F)CC3)C(=O)N(C)CC(=O)N[C@@H](CCc3ccc(C(F)(F)F)c(OC)c3)C(=O)N2C1 [PP2480] | A (a compound having 10 or more and less than 20 is denoted as A) | A (a compound having 10 or more and less than 20 is denoted as A) | 
11.4 nM | 0.23 nM | CCO[C@@H]1C[C@H]2C(=O)NC3(CC(C)(C)C3)C(=O)N(C)[C@@H](C3CCCC3)C(=O)N(C)[C@H](C(=O)N(CC)CC)CC(=O)N(C)[C@@H](COC)C(=O)N[C@@H]([C@@H](C)CC)C(=O)N(C)CC(=O)N(C)[C@H]3C/C=C\CCN(C3=O)[C@@H](Cc3ccc(C)cc3)C(=O)N(C)CC(=O)N[C@@H](CCc3ccc(C(F)(F)F)c(OC)c3)C(=O)N2C1 [PP2398] | A (a compound having 10 or more and less than 20 is denoted as A) | A (a compound having 10 or more and less than 20 is denoted as A) | 
5.1 nM |  | CCCOC[C@H]1C(=O)N[C@@H]([C@@H](C)CC)C(=O)N(C)CC(=O)N(C)[C@H]2C/C=C\CCN(C2=O)[C@@H](Cc2ccc(C)cc2)C(=O)N(C)CC(=O)N[C@@H](CCc2cc(F)c(C(F)(F)F)c(F)c2)C(=O)N2C[C@H](OCC)C[C@H]2C(=O)NC2(CC(C)(C)C2)C(=O)N(C)[C@@H](C2CCCC2)C(=O)N(C)[C@H](C(=O)N(C)C)CC(=O)N1C [PP1400, (2S,8S,12R,14S,20S,23S,27S,30S,36S,38Z)-20-cyclopentyl-8-[2-[3,5-difluoro-4-(trifluoromethyl)phenyl]ethyl]-12-ethoxy-N,N,3′,3′,4,19,22,26,32,35-decamethyl-30-[(1S)-1-methylpropyl]-3,6,9,15,18,21,25,28,31,34,42-undecaoxo-27-(propoxymethyl)-2-(p-tolylmethyl)spiro[1,4,7,10,16,19,22,26,29,32,35-undecazatricyclo[34.5.1.0^10,14]dotetracont-38-ene-17,1′-cyclobutane]-23-carboxamide] |  |  | NRAS/KRAS (ratio of KD value for NRAS to KD value for KRAS) ([1]; SPR, KD ratio class): A (a compound having 10 or more and less than 20 is denoted as A); HRAS/KRAS (ratio of KD value for HRAS to KD value for KRAS) ([2]; SPR, KD ratio class): B (a compound having 3 or more and less than 10 is denoted as B); Kd [4, 5]: 0.049 nM
97.3 nM | 6.2 nM | CCC(CC)[C@H]1C(=O)N(C)[C@H](C(=O)N(C)C)CC(=O)N(C)[C@@H](C(C)C)C(=O)N[C@@H]([C@@H](C)CC)C(=O)N(C)CC(=O)N(C)[C@H]2C/C=C\CCN(C2=O)[C@@H](CC2CCC(F)(F)CC2)C(=O)N(C)CC(=O)N[C@@H](CCc2cc(F)c(C(F)(F)F)c(F)c2)C(=O)N2C[C@@H](C)C[C@H]2C(=O)NC2(CC(C)(C)C2)C(=O)N1C [PP2496] | A (a compound having 10 or more and less than 20 is denoted as A) | A (a compound having 10 or more and less than 20 is denoted as A) | 
8.9 nM |  | CCC[C@H]1C(=O)N[C@@H]([C@@H](C)CC)C(=O)N(C2CC2)CC(=O)N(C)[C@H]2C/C=C\CCN(C2=O)[C@@H](Cc2ccc(C)cc2)C(=O)N(C)CC(=O)N[C@@H](CCc2cc(F)c(C(F)(F)F)c(F)c2)C(=O)N2C[C@H](OC(C)C)C[C@H]2C(=O)NC2(CC(C)(C)C2)C(=O)N(C)[C@@H](C2CCCC2)C(=O)N(C)[C@H](C(=O)N(C)C)CC(=O)N1C [PP2570] |  |  | NRAS/KRAS (ratio of KD value with respect to GDP-bound NRAS wild-type protein to KD value with respect to KRAS) ([1]; SPR KD ratio NRAS/KRAS, class symbols): A (a compound having 10 or more and less than 20 is denoted as A); HRAS/KRAS (ratio of KD value with respect to GDP-bound HRAS wild-type protein to KD value with respect to KRAS) ([2]; SPR KD ratio HRAS/KRAS, class symbols): A (a compound having 10 or more and less than 20 is denoted as A); Kd ([4]; SPR Single Cycle Kinetics, 1:1 binding model): 0.39 nM
